Laboratory results as given in patent publication US20020168329A1, “Skin composition” (Unilever Home & Personal Care USA, Division of Conopco, Inc., priority 2001, published 2002).

Test system: Volunteers with oily skin type
Experiment: Oil (sebum) secretion on the skin measured with Sebumeter SM 810 PC after one week of twice-daily cream use
Type: in vivo, human
Conditions: after 2 hours; conclusion from Table 1
Experimental: Method of Testing Oil Secretion:
The above mentioned formulations (Examples 1 to 4) were tested for their efficacy in reducing the oil secretion on the skin using a sebumeter by the following protocol.
Volunteers with oily skin type were recruited. The initial sebum was measured with Sebumeter SM 810 PC on the cheeks, and the selection was made such that they had approximately similar sebum profile. The panellists were asked to use 0.5 g of the assigned cream on their face twice a day, for one week. The sebum profile was measured on the 8th day. The panellists washed their face and the sebum secretion on the skin surface after 2 hours was measured using the Sebumeter SM 810 PC on the cheeks.
Sebumeter is a device for measuring sebum content on skin surface. A piece of plastic film (wound in the form of a cassette) is kept on the skin for 30 sec. By this means the […] measuring area of the plastic film becomes transparent due to absorbed sebum. […] Sebumeter SM 810 PC immediately indicates sebum content between 50 & 300 μgm/cm^2 % sebum reduction is calculated.
The protocol to measure the % reduction in sebum secretion is as per the procedure described above. The samples of creams described in Examples 4, 5 and 6 were tested for their efficacy in reducing the sebum secretion and the data are presented in Table 3.

Compound	effect in reducing oil secretion on the skin (in words)
CCCCCCCCCCCCCOC(=O)c1ccccc1O [tridecyl salicylate]	significant effect in reducing oil secretion on the skin
NC(=O)c1cccnc1 [niacinamide]	significant effect in reducing oil secretion on the skin
